Measured values from ChEMBL document CHEMBL6182944, “Substrate Specificity of the Organic Cation Transporters MATE1 and MATE2K and Functional Overlap with OCT1 and OCT2” (J Med Chem, 2025).

How the values were obtained:
[1] = target: T1, Multidrug and toxin extrusion protein 1 (Homo sapiens, UniProt Q96FL8); test: Substrate activity at MATE1 (unknown origin) expressed in HEK293 cells assessed as Vmax (maximum transport velocity) by HPLC-MS/MS analysis; assay type: cell-based
T1 sequence (Q96FL8 whole entry): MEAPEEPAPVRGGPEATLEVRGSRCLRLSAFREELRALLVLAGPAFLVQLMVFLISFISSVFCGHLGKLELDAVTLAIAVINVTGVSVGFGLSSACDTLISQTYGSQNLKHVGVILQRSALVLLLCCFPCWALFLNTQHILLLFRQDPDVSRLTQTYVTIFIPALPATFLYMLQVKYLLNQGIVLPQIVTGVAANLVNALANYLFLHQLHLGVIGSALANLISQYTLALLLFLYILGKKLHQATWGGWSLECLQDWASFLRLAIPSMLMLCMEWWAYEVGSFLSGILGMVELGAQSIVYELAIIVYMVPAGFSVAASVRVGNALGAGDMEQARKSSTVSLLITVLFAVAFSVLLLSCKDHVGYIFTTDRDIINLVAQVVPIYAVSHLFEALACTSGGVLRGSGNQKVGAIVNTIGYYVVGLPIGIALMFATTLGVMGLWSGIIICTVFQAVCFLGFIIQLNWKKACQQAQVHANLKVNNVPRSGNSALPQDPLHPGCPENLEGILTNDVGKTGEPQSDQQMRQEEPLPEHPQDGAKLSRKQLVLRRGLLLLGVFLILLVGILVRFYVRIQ

[2] = target: T2, Multidrug and toxin extrusion protein 2 (Homo sapiens, UniProt Q86VL8); test: Substrate activity at MATE2-K (unknown origin) expressed in HEK293 cells assessed as Vmax (maximum transport velocity) by HPLC-MS/MS analysis; assay type: cell-based
T2 sequence (Q86VL8 whole entry): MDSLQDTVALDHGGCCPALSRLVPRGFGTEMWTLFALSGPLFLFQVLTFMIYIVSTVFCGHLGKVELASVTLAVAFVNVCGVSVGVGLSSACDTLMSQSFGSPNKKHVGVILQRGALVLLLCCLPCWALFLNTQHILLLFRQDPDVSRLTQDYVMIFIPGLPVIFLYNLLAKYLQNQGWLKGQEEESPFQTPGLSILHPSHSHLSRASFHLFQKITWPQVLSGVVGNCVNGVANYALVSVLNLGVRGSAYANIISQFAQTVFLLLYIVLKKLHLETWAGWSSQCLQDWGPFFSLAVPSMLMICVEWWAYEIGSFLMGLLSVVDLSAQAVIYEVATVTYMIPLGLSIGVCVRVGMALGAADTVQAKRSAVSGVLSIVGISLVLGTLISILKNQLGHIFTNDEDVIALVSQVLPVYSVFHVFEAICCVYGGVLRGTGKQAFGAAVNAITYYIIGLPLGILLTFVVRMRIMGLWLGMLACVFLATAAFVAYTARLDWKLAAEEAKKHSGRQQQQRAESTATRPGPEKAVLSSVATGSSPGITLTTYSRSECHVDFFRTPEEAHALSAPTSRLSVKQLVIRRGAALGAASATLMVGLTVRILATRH

MATE2-K [3] = target: T3, MATE2-K (Homo sapiens, UniProt Q86VL8); test: (§1) Substrate activity at MATE2-K (unknown origin) expressed in HEK293 cells assessed as substrate concentration to achieve half of Vmax (maximum transport velocity) measured per mg of protein by HPLC-MS/MS analysis; assay type: cell-based; settings: HEK293 cells expressing MATE2-K
T3 sequence (Q86VL8 whole entry): T2 sequence (Q86VL8 whole entry)

[4] = target: T1, Multidrug and toxin extrusion protein 1; test: Substrate activity at MATE1 (unknown origin) expressed in HEK293 cells assessed as intrinsic clearance by measuring ratio of Vmax (maximum transport velocity) over Km measured per mg of protein by HPLC-MS/MS analysis; assay type: cell-based
[5] = target: T2, Multidrug and toxin extrusion protein 2; test: Substrate activity at MATE2-K (unknown origin) expressed in HEK293 cells assessed as intrinsic clearance by measuring ratio of Vmax (maximum transport velocity) over Km measured per mg of protein by HPLC-MS/MS analysis; assay type: cell-based
MATE1 = target: T4, MATE1 (Homo sapiens, UniProt Q96FL8); test: in vitro
T4 sequence (Q96FL8 whole entry): T1 sequence (Q96FL8 whole entry)

[6] = target: T1, Multidrug and toxin extrusion protein 1; test: Substrate activity at MATE1 (unknown origin) expressed in HEK293 cells assessed as increase in uptake by HPLC-MS/MS analysis; assay type: cell-based
MATE2-K [7] = target: T3, MATE2-K; test: in vitro
[8] = target: T2, Multidrug and toxin extrusion protein 2; test: Substrate activity at MATE2-K (unknown origin) expressed in HEK293 cells assessed as increase in uptake by HPLC-MS/MS analysis; assay type: cell-based
[9] = substrate: CCN1CCCC1CNC(=O)c1cc(S(=O)(=O)CC)c(N)cc1OC; test: as §1; assay type: cell-based, Homo sapiens
[10] = substrate: CC(CCc1ccc(O)cc1)NCCc1ccc(O)c(O)c1; test: as §1; assay type: cell-based, Homo sapiens
[11] = substrate: C[C@H]1N=C(N(C)C)N=C(N)N1; test: as §1; assay type: cell-based, Homo sapiens
[12] = substrate: CN(C)C(=O)Oc1cccc([N+](C)(C)C)c1; test: as §1; assay type: cell-based, Homo sapiens
[13] = substrate: COCCn1c2c([n+](Cc3cnccn3)c1C)C(=O)c1ccccc1C2=O; test: as §1; assay type: cell-based, Homo sapiens
[14] = substrate: c1c2c(cc3c1OCO3)-c1cc3ccc4c(c3c[n+]1CC2)OCO4; test: as §1; assay type: cell-based, Homo sapiens
[15] = substrate: C[N+]1(CC2CC2)CC[C@]23c4c5ccc(O)c4O[C@H]2C(=O)CC[C@@]3(O)[C@H]1C5; test: as §1; assay type: cell-based, Homo sapiens
not read [16] = substrate: CNC[C@H](O)c1ccc(O)c(O)c1; test: not read
not read [17] = substrate: Cc1ncc(CO)c(CO)c1O; test: not read
not read [18] = substrate: Cc1ncc(C[n+]2csc(CCO)c2C)c(N)n1; test: not read
not read [19] = substrate: NCCc1ccc(O)c(O)c1; test: not read
not read [20] = substrate: CN(C)CCc1c[nH]c2ccc(C[C@H]3COC(=O)N3)cc12; test: not read
not read [21] = substrate: Nc1nc(=O)n([C@@H]2CS[C@H](CO)O2)cc1F; test: not read
not read [22] = substrate: CC(C)NC[C@@H](O)COc1ccc(CC(N)=O)cc1; test: not read

Molecule: CN(C)CCc1c[nH]c2ccc(C[C@@H]3COC(=O)N3)cc12
- Vmax [1]: 2624 pmol/min
- Vmax [2]: 992 pmol/min
- Km (MATE2-K [3]): 18.3 µM
- CL [4]: 94.5 µL/min
- CL [5]: 54.2 µL/min

Molecule: CN[C@@H]1CCc2[nH]c3ccc(C(N)=O)cc3c2C1 [FROVATRIPTAN]
- Vmax [1]: 4568 pmol/min
- uptake ratio at 1 min, 2.5 µM (MATE1; hek293): > 2
- Activity [6]: Dose-dependent-effect
- uptake ratio at 1 min, 2.5 µM (MATE2-K [7]; hek293): > 2
- Vmax [2]: 869 pmol/min
- Activity [8]: Dose-dependent-effect
- CL [4]: 64.9 µL/min
- CL [5]: 77.8 µL/min

Molecule: COCCn1c2c([n+](Cc3cnccn3)c1C)C(=O)c1ccccc1C2=O [SEPANTRONIUM]
- Vmax [1]: 304 pmol/min
- uptake ratio at 1 min, 2.5 µM (MATE1; HEK293 cells expressing MATE1): > 2
- Activity [6]: Dose-dependent-effect
- uptake ratio at 1 min, 2.5 µM (MATE2-K [7]; HEK293 cells expressing MATE2-K): > 2
- Activity [8]: Dose-dependent-effect
- CL [4]: 3.76 µL/min
- CL [5]: 9.19 µL/min

Molecule: Cc1ncc(C[n+]2csc(CCO)c2C)c(N)n1 [THIAMINE ION]
- Vmax [1]: 599 pmol/min
- uptake ratio at 1 min, 2.5 µM (MATE1; hek293): > 2
- Activity [6]: Dose-dependent-effect
- uptake ratio at 1 min, 2.5 µM (MATE2-K [7]; hek293): > 2
- Activity [8]: Dose-dependent-effect
- CL [4]: 34.9 µL/min
- CL [5]: 6.32 µL/min

B1: Multidrug and toxin extrusion protein 2 (Homo sapiens) (protein)
chain: T2 sequence (Q86VL8 whole entry)
- Km [9]: 39.9 µM
- Vmax [9]: 0.00071 µmol/min
- Km [10]: 86.4 µM
- Vmax [10]: 0.000493 µmol/min
- Km [11]: 81.6 µM
- Vmax [11]: 0.00281 µmol/min
- Km [12]: 385 µM
- Vmax [12]: 0.00314 µmol/min
- Km [13]: 8.54 µM
- Vmax [13]: 7.85e-05 µmol/min
- Km [14]: 1.88 µM
- Vmax [14]: 0.000246 µmol/min
- Km [15]: 86.8 µM
- Vmax [15]: 4.16e-05 µmol/min
- Km (not read [16]): 1510 µM
- Vmax (not read [16]): 0.00297 µmol/min
- Km (not read [17]): 495 µM
- Vmax (not read [17]): 0.000593 µmol/min
- Vmax (not read [18]): 0.000109 µmol/min
- Km (not read [19]): 961 µM
- Vmax (not read [19]): 0.00122 µmol/min
- Km (not read [20]): 94.5 µM
- Vmax (not read [20]): 0.00166 µmol/min
- Km (not read [21]): 873 µM
- Vmax (not read [21]): 0.00263 µmol/min
- Km (not read [22]): 181 µM
- Vmax (not read [22]): 0.00296 µmol/min
